According to PubChem BioAssay AID1845202 (Molecular Pharmacology Branch, DTP, NCI, 2023):

Tested on: DMS 114 tumor spheroids, viability % test/control
Assay: Anticancer human tumor DMS 114 cell line growth inhibition;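 note: spheroids exposed to compounds for 7 days before read-out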;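 for viability, T/C: luminescence used as a proxy for viable cells; 100% = DMSO vehicle control viability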
Settings: spheroids with HUVEC and MSC; for IC50: curve of first compound; for viability, T/C: stronger effect = lower value
Method in brief: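 Complex tumor spheroids combined malignant cells with endothelial cells and mesenchymal stem cells. DNA-damaging drugs and DNA repair inhibitors were tested alone and in combination, at half-log dilutions down from clinical Cmax (top 10 microM if Cmax unknown), 0.25% DMSO final.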

[1] = second compound 0.003 µM, first compound 0.0316 µM
[2] = second compound 0.003 µM, first compound 0.1 µM
[3] = second compound 0.003 µM, first compound 0.316 µM
[4] = second compound 0.003 µM, first compound 1 µM
[5] = second compound 0.003 µM, first compound 3.16 µM
[6] = second compound 0.003 µM, first compound 10 µM
[7] = second compound 0.00949 µM, first compound 0.0316 µM
[8] = second compound 0.00949 µM, first compound 0.1 µM
[9] = second compound 0.00949 µM, first compound 0.316 µM
[10] = second compound 0.00949 µM, first compound 1 µM
[11] = second compound 0.00949 µM, first compound 3.16 µM
[12] = second compound 0.00949 µM, first compound 10 µM
[13] = second compound 0.03 µM, first compound 0.0316 µM
[14] = second compound 0.03 µM, first compound 0.1 µM
[15] = second compound 0.03 µM, first compound 0.316 µM
[16] = second compound 0.03 µM, first compound 1 µM
[17] = second compound 0.03 µM, first compound 3.16 µM
[18] = second compound 0.03 µM, first compound 10 µM
[19] = second compound 0.0949 µM, first compound 0.0316 µM
[20] = second compound 0.0949 µM, first compound 0.1 µM
[21] = second compound 0.0949 µM, first compound 0.316 µM
[22] = second compound 0.0949 µM, first compound 1 µM
[23] = second compound 0.0949 µM, first compound 3.16 µM
[24] = second compound 0.0949 µM, first compound 10 µM
[25] = second compound 0.3 µM, first compound 0.0316 µM
[26] = second compound 0.3 µM, first compound 0.1 µM
[27] = second compound 0.3 µM, first compound 0.316 µM
[28] = second compound 0.3 µM, first compound 1 µM
[29] = second compound 0.3 µM, first compound 3.16 µM
[30] = second compound 0.3 µM, first compound 10 µM

CC(C)n1c(=O)n(C)c2cnc3cc(F)c(-c4ccc(OCCCN5CCCCC5)nc4)cc3c21 + CC[C@@]1(O)C(=O)OCc2c1cc1n(c2=O)Cc2cc3c(CN(C)C)c(O)ccc3nc2-1
IC50 (second compound 0.003 µM): 1950 nM | IC50 (second compound 0.00949 µM): < 31.6 nM | IC50 (second compound 0.03 µM): < 31.6 nM | IC50 (second compound 0.0949 µM): < 31.6 nM | IC50 (second compound 0.3 µM): < 31.6 nM | viability, T/C [1]: 75.1% | viability, T/C [2]: 72.8% | viability, T/C [3]: 63.4% | viability, T/C [4]: 61.1% | viability, T/C [5]: 43.5% | viability, T/C [6]: 16.7% | viability, T/C [7]: 37.9% | viability, T/C [8]: 37.9% | viability, T/C [9]: 33.3% | viability, T/C [10]: 31.3% | viability, T/C [11]: 25% | viability, T/C [12]: 10.4% | viability, T/C [13]: 24.7% | viability, T/C [14]: 24.6% | viability, T/C [15]: 23.9% | viability, T/C [16]: 20.2% | viability, T/C [17]: 18.2% | viability, T/C [18]: 9.25% | viability, T/C [19]: 13.6% | viability, T/C [20]: 15.6% | viability, T/C [21]: 11.3% | viability, T/C [22]: 14.2% | viability, T/C [23]: 11.2% | viability, T/C [24]: 7.13% | viability, T/C [25]: 9.95% | viability, T/C [26]: 9.05% | viability, T/C [27]: 9.41% | viability, T/C [28]: 9.97% | viability, T/C [29]: 8.36% | viability, T/C [30]: 6.56%

CC1COCCN1c1cc(-c2ccnn2C)c2ccnc(-c3ccn[nH]3)c2n1 (stereo not given) + CC[C@@]1(O)C(=O)OCc2c1cc1n(c2=O)Cc2cc3c(CN(C)C)c(O)ccc3nc2-1
IC50 (second compound 0.003 µM): < 31.6 nM | IC50 (second compound 0.00949 µM): < 31.6 nM | IC50 (second compound 0.03 µM): < 31.6 nM | IC50 (second compound 0.0949 µM): < 31.6 nM | IC50 (second compound 0.3 µM): < 31.6 nM | viability, T/C [1]: 24.7% | viability, T/C [2]: 20.3% | viability, T/C [3]: 15.8% | viability, T/C [4]: 11.9% | viability, T/C [5]: 8.38% | viability, T/C [6]: 8.31% | viability, T/C [7]: 16.8% | viability, T/C [8]: 16.3% | viability, T/C [9]: 15.2% | viability, T/C [10]: 10.5% | viability, T/C [11]: 7.71% | viability, T/C [12]: 8.35% | viability, T/C [13]: 13.2% | viability, T/C [14]: 13% | viability, T/C [15]: 11.1% | viability, T/C [16]: 8.42% | viability, T/C [17]: 7.3% | viability, T/C [18]: 7.49% | viability, T/C [19]: 8.52% | viability, T/C [20]: 8.81% | viability, T/C [21]: 8.07% | viability, T/C [22]: 7.09% | viability, T/C [23]: 6.17% | viability, T/C [24]: 7.21% | viability, T/C [25]: 6.92% | viability, T/C [26]: 7.23% | viability, T/C [27]: 6.75% | viability, T/C [28]: 6.68% | viability, T/C [29]: 6.95% | viability, T/C [30]: 7.43%

COc1cc(C)[nH]c(=O)c1CN1CCc2c(Cl)cc(C(OC)C3COC3)c(Cl)c2C1=O (stereo not given) + CC[C@@]1(O)C(=O)OCc2c1cc1n(c2=O)Cc2cc3c(CN(C)C)c(O)ccc3nc2-1
IC50 (second compound 0.003 µM): > 10000 nM | IC50 (second compound 0.00949 µM): 1920 nM | IC50 (second compound 0.03 µM): < 31.6 nM | IC50 (second compound 0.0949 µM): < 31.6 nM | IC50 (second compound 0.3 µM): < 31.6 nM | viability, T/C [1]: 103% | viability, T/C [2]: 88.5% | viability, T/C [3]: 83.4% | viability, T/C [4]: 77% | viability, T/C [5]: 66% | viability, T/C [6]: 61.2% | viability, T/C [7]: 88.3% | viability, T/C [8]: 74.2% | viability, T/C [9]: 64.1% | viability, T/C [10]: 57.5% | viability, T/C [11]: 49.3% | viability, T/C [12]: 32.1% | viability, T/C [13]: 39.2% | viability, T/C [14]: 34% | viability, T/C [15]: 32.1% | viability, T/C [16]: 30.6% | viability, T/C [17]: 24.4% | viability, T/C [18]: 18.5% | viability, T/C [19]: 16.8% | viability, T/C [20]: 16.3% | viability, T/C [21]: 18.4% | viability, T/C [22]: 17.1% | viability, T/C [23]: 15.2% | viability, T/C [24]: 12% | viability, T/C [25]: 10.3% | viability, T/C [26]: 11.2% | viability, T/C [27]: 10.6% | viability, T/C [28]: 11.4% | viability, T/C [29]: 11.1% | viability, T/C [30]: 10.7%

COc1ccc([C@@H](O)c2cc(-c3ncnc4cc(N5CCOCC5)ccc34)c(F)cc2Cl)nn1 + CC[C@@]1(O)C(=O)OCc2c1cc1n(c2=O)Cc2cc3c(CN(C)C)c(O)ccc3nc2-1
IC50 (second compound 0.003 µM): 5390 nM | IC50 (second compound 0.00949 µM): 1760 nM | IC50 (second compound 0.03 µM): < 31.6 nM | IC50 (second compound 0.0949 µM): < 31.6 nM | IC50 (second compound 0.3 µM): < 31.6 nM | viability, T/C [1]: 116% | viability, T/C [2]: 110% | viability, T/C [3]: 109% | viability, T/C [4]: 106% | viability, T/C [5]: 69% | viability, T/C [6]: 27.9% | viability, T/C [7]: 89.9% | viability, T/C [8]: 73.8% | viability, T/C [9]: 78.9% | viability, T/C [10]: 57.7% | viability, T/C [11]: 40.2% | viability, T/C [12]: 17.3% | viability, T/C [13]: 30.8% | viability, T/C [14]: 32.4% | viability, T/C [15]: 32.8% | viability, T/C [16]: 25.5% | viability, T/C [17]: 13.7% | viability, T/C [18]: 13.5% | viability, T/C [19]: 16.2% | viability, T/C [20]: 16.6% | viability, T/C [21]: 16.4% | viability, T/C [22]: 14% | viability, T/C [23]: 10.1% | viability, T/C [24]: 7.97% | viability, T/C [25]: 10.7% | viability, T/C [26]: 9.61% | viability, T/C [27]: 9.29% | viability, T/C [28]: 10.1% | viability, T/C [29]: 6.94% | viability, T/C [30]: 5.57%

[2H]c1nc(C)nc([2H])c1-c1cc(NC[C@@H](C)c2cccc3c(C(=O)NC)ccnc23)ncn1 + CC[C@@]1(O)C(=O)OCc2c1cc1n(c2=O)Cc2cc3c(CN(C)C)c(O)ccc3nc2-1
IC50 (second compound 0.003 µM): > 10000 nM | IC50 (second compound 0.00949 µM): > 10000 nM | IC50 (second compound 0.03 µM): < 31.6 nM | IC50 (second compound 0.0949 µM): < 31.6 nM | IC50 (second compound 0.3 µM): < 31.6 nM | viability, T/C [1]: 114% | viability, T/C [2]: 113% | viability, T/C [3]: 112% | viability, T/C [4]: 121% | viability, T/C [5]: 105% | viability, T/C [6]: 88.5% | viability, T/C [7]: 93% | viability, T/C [8]: 96.2% | viability, T/C [9]: 92.4% | viability, T/C [10]: 79% | viability, T/C [11]: 68.3% | viability, T/C [12]: 58.9% | viability, T/C [13]: 35.3% | viability, T/C [14]: 35% | viability, T/C [15]: 32.8% | viability, T/C [16]: 27.7% | viability, T/C [17]: 24% | viability, T/C [18]: 18.9% | viability, T/C [19]: 17% | viability, T/C [20]: 16.7% | viability, T/C [21]: 17.1% | viability, T/C [22]: 16.9% | viability, T/C [23]: 13.7% | viability, T/C [24]: 13.7% | viability, T/C [25]: 11% | viability, T/C [26]: 11% | viability, T/C [27]: 11.4% | viability, T/C [28]: 9.27% | viability, T/C [29]: 12.8% | viability, T/C [30]: 12.3%
